The values below come from US10125098B2, “Therapeutic compounds and methods of use thereof” (GENENTECH, INC., priority 2014, dated 2018).

SMILES strings stand for the structures. Structures can show the parent of a compound that is named as a salt. Where two headings read alike, the source gives them in different places.

One series addresses T1, human NaV1.7 (Homo sapiens, UniProt Q15858).
T1 construct: permanently transfected with an expression vector containing the full-length cDNA coding for the desired human sodium channel α-subunit; expressed in transfected cells; host or cells: HEK-293
As to the kind of experiment: Patch voltage clamp electrophysiology assay (EP), NaV1.7. The format is cell-based. The settings on record: HEK-293 cells stably expressing NaV1.7 with β1 subunit; whole-cell patch clamp, membrane potential −60 mV (inactivated state). Put shortly:
(§1)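 Percent block is the drop in sodium current after compound wash-on, measured by a test pulse following 20 ms at −150 mV from a −60 mV inactivating holding potential.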

Another series has as its target T2, hNav1.7 (Homo sapiens, UniProt Q15858).
T2 construct: expressed in transfected cells
As to the kind of experiment: Tritiated compound binding (LBA) to membranes from cells expressing hNav1.7 and the β1 subunit, competitive binding. The settings on record: competitive binding vs 100 pM [3H]compound, 18 h, room temperature, membranes with hNav1.7 and β1 subunit. Put shortly:
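Competitive displacement of 100 pM [3H]compound (tritiated methyl analogue of formula (I)) from hNav1.7/β1 membranes, 18 h at room temperature in NaCl/Tris pH 7.4 buffer containing 0.01% BSA. 1 μM unlabeled compound set non-specific binding. Bound label quantified by scintillation after filtration; 4-parameter fit gave IC50.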

The target of the next series is T3, NaV1.5 (Homo sapiens, UniProt Q14524).
T3 construct: permanently transfected with an expression vector containing the full-length cDNA coding for the desired human sodium channel α-subunit; expressed in transfected cells; host or cells: HEK-293
As to the kind of experiment: Patch voltage clamp electrophysiology assay (EP), NaV1.5. Format: cell-based. Put shortly:
as §1

Setting [1] is: human, HEK-293 cells stably expressing human NaV1.5 with β1 subunit, pH 7.4, HEK-293 cells stably expressing NaV1.5 with β1 subunit, whole-cell patch clamp, membrane potential −60 mV (inactivated state).
Setting [2] is: HEK-293 cells stably expressing NaV1.5 with β1 subunit, whole-cell patch clamp, membrane potential −60 mV (inactivated state), read-out: Nav1.5.

T2 sequence (Q15858 1-1977 isoform Q15858-3): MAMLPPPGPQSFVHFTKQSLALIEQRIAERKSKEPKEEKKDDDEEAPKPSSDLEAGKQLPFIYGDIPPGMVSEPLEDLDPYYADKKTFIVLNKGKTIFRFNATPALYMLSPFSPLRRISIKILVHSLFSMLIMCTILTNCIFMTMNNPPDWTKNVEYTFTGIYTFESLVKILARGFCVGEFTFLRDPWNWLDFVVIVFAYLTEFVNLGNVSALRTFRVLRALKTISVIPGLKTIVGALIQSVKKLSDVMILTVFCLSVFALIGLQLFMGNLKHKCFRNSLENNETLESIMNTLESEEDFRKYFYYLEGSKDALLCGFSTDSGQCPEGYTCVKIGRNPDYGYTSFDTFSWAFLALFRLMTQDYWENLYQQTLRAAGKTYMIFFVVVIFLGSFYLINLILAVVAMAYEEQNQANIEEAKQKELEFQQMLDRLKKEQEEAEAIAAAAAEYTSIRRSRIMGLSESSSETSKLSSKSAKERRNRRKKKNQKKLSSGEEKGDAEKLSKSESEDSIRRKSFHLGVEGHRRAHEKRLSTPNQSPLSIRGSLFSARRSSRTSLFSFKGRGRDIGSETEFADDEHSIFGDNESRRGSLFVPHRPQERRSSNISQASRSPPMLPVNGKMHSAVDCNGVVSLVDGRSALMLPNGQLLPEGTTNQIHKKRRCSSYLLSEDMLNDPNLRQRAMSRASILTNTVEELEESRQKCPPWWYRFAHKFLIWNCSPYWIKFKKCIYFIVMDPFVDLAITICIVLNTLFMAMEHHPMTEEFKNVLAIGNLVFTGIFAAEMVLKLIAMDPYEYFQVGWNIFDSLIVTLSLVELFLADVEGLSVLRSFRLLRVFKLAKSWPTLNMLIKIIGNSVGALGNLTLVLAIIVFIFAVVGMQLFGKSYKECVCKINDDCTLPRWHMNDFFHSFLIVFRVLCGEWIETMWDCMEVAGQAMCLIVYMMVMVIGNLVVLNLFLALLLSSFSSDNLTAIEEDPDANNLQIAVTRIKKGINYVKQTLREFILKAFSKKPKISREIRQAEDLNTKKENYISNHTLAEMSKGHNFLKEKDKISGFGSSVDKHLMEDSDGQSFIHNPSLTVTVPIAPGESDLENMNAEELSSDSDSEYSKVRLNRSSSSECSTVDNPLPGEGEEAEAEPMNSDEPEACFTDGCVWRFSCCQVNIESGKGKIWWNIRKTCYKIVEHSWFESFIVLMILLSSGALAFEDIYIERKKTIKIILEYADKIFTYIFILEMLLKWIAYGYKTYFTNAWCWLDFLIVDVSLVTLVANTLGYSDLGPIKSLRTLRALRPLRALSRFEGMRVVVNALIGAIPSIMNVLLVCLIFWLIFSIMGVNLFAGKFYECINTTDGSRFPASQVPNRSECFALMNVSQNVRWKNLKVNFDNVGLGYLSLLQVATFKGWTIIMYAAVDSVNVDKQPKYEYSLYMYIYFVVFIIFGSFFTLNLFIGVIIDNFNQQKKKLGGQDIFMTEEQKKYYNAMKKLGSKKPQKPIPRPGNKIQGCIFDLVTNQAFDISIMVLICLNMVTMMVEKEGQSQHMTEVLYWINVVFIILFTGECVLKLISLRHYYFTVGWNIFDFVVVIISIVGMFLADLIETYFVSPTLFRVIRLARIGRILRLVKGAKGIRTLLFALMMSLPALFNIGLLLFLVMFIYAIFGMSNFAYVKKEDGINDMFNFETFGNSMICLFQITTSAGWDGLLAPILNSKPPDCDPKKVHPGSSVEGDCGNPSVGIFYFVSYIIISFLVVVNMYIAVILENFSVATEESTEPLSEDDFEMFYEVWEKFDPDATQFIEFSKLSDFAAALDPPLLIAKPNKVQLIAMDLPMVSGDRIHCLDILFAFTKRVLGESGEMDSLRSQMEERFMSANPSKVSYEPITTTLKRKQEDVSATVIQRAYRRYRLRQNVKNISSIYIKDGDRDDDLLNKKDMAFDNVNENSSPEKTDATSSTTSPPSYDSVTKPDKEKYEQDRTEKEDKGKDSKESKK
T2 sequence (Q07699 19-218 partner): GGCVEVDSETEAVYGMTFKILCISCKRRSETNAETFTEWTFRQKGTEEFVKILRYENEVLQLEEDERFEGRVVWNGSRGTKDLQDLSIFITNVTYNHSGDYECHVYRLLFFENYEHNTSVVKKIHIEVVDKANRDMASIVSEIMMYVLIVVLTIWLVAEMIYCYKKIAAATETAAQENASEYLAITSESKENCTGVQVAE
T1 sequence (Q15858 1-1977 isoform Q15858-3): as the sequence (Q15858 1-1977 isoform Q15858-3) above
T1 sequence (Q07699 19-218 partner): as the sequence (Q07699 19-218 partner) above
T3 sequence (Q14524 whole entry): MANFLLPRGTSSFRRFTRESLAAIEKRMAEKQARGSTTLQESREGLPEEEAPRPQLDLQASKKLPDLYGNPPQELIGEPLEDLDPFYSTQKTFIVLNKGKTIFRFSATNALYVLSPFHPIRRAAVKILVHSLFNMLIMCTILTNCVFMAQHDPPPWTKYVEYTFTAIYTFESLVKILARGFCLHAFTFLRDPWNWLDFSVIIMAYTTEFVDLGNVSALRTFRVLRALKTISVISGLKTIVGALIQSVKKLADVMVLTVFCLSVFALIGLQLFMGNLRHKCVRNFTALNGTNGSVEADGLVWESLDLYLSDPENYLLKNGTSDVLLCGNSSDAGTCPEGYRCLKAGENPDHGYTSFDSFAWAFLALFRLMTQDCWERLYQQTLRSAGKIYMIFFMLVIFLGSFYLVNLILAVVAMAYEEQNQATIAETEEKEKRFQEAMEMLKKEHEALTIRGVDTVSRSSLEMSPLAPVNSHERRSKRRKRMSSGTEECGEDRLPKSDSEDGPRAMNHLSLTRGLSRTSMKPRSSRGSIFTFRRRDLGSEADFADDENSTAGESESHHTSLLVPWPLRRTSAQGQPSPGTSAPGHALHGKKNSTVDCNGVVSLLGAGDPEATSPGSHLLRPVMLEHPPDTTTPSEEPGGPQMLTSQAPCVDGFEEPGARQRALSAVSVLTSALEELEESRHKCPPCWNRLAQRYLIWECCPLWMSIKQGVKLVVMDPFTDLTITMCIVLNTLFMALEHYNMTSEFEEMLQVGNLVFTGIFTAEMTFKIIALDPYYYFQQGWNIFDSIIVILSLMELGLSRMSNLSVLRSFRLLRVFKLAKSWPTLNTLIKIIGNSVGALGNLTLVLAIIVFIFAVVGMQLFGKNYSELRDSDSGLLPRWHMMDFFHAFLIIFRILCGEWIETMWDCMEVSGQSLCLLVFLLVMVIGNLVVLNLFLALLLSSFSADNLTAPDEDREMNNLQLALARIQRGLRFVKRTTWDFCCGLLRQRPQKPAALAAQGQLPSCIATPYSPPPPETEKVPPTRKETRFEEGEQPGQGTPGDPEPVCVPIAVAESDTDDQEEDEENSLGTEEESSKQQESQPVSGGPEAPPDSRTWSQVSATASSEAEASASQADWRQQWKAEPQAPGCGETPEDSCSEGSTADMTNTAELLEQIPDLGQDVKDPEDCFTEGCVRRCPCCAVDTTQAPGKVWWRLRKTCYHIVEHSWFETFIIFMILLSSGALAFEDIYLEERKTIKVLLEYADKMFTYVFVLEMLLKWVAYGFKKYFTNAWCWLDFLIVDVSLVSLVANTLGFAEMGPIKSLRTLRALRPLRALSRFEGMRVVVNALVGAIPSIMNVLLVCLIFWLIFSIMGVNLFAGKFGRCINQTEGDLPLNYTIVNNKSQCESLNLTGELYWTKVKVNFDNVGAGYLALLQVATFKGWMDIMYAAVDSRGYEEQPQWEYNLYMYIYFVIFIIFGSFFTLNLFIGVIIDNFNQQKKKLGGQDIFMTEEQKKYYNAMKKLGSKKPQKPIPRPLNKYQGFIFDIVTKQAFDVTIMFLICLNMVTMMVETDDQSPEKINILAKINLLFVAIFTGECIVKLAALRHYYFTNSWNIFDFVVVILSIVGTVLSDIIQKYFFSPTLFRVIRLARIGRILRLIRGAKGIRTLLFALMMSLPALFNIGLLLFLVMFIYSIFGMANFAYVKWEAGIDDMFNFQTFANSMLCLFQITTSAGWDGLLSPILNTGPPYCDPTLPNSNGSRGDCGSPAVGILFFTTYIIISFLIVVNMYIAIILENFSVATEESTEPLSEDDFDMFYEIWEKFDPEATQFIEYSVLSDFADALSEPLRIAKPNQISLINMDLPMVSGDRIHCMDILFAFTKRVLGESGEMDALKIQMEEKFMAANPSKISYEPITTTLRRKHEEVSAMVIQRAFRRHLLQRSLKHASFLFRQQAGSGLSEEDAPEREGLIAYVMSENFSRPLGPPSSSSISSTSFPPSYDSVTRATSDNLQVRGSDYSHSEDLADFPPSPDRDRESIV

As for `COc1ncccc1-c1cc(C(=O)N2CCC[C@H]2C(=O)O)c(F)cc1Oc1cnc(OC(C)C)c(Cl)c1` [Example 179, (S)-1-(4-((5-chloro-6-isopropoxypyridin-3-yl)oxy)-2-fluoro-5-(2-methoxypyridin-3-yl)benzoyl)pyrrolidine-2-carboxylic acid], the IC50 on human NaV1.7 was 830 nM; at hNav1.7, 400 nM; at NaV1.5 (setting [1]), at least 30000 nM.

In the case of `O=C(O)[C@@H]1CCCN1C(=O)c1cc(Cl)c(COc2cnc(OCC(F)(F)C(F)F)c(Cl)c2)cc1F` [Example 180, (S)-1-(5-chloro-4-(((5-chloro-6-(2,2,3,3-tetrafluoropropoxy)pyridin-3-yl)oxy)methyl)-2-fluorobenzoyl)pyrrolidine-2-carboxylic acid], the IC50 against human NaV1.7 is 1400 nM; at hNav1.7 it was 830 nM; against NaV1.5 (setting [1]), at least 30000 nM.

`O=C(O)[C@@H]1CCCN1C(=O)c1cc(C2CC2)c(OCC2CCN(Cc3cc(Cl)ccc3C(F)(F)F)CC2)cc1F` [Example 181, (S)-1-(4-((1-(5-chloro-2-(trifluoromethyl)benzyl)piperidin-4-yl)methoxy)-5-cyclopropyl-2-fluorobenzoyl)pyrrolidine-2-carboxylic acid]: the results for the IC50 against human NaV1.7, at hNav1.7 and on NaV1.5 (setting [1]) were 230 nM, 50 nM and at least 30000 nM, respectively.

As to `O=C(O)[C@@H]1CCCN1C(=O)c1cc(C2CC2)c(COc2cc(Cl)cc(OC(F)(F)F)c2)cc1F` [Example 182, (S)-1-(4-((3-chloro-5-(trifluoromethoxy)phenoxy)methyl)-5-cyclopropyl-2-fluorobenzoyl)pyrrolidine-2-carboxylic acid], the values for the IC50 against human NaV1.7, at hNav1.7 and on NaV1.5 (setting [2]) were 220 nM, 32 nM and 25000 nM, respectively.

For the compound `CC(C)[C@H](NC(=O)c1cc(C2CC2)c(COc2cc(Cl)cc(OC(F)(F)F)c2)cc1F)C(=O)O` [Example 183, (S)-2-(4-((3-chloro-5-(trifluoromethoxy)phenoxy)methyl)-5-cyclopropyl-2-fluorobenzamido)-3-methylbutanoic acid], the IC50 at human NaV1.7 was determined as 1900 nM; at hNav1.7 it was 31 nM; at NaV1.5 (setting [2]), 9200 nM.

For `O=C(O)[C@@H]1CCCN1C(=O)c1cc(C2CC2)c(COc2cnc(OCC(F)(F)C(F)F)c(C3CC3)c2)cc1F` [Example 184, (S)-1-(5-cyclopropyl-4-(((5-cyclopropyl-6-(2,2,3,3-tetrafluoropropoxy)pyridin-3-yl)oxy)methyl)-2-fluorobenzoyl)pyrrolidine-2-carboxylic acid], the IC50 against human NaV1.7 is 1300 nM; on hNav1.7, 460 nM; on NaV1.5 (setting [2]), 23000 nM.

Turning to `CC(C)COc1ncc(Oc2cc(F)c(C(=O)N[C@H](C(=O)O)C(C)C)cc2Cl)cc1Cl` [Example 185, (S)-2-(5-chloro-4-((5-chloro-6-isobutoxypyridin-3-yl)oxy)-2-fluorobenzamido)-3-methylbutanoic acid], the IC50 against human NaV1.7 was 9600 nM; at hNav1.7, 100 nM; on NaV1.5 (setting [2]), 17000 nM.

On to `CC[C@@H](C)[C@H](NC(=O)c1cc(Cl)c(Oc2cnc(OCC(C)C)c(Cl)c2)cc1F)C(=O)O` [Example 186, (2S,3R)-2-(5-chloro-4-((5-chloro-6-isobutoxypyridin-3-yl)oxy)-2-fluorobenzamido)-3-methylpentanoic acid], for which the IC50 was 8300 nM on human NaV1.7, 350 nM on hNav1.7 and 12000 nM on NaV1.5 (setting [2]).

On to `CC(C)[C@@H](C(=O)O)N(C)C(=O)c1cc(C2CC2)c(COc2cc(Cl)cc(OC(F)(F)F)c2)cc1F` [Example 187, (S)-2-(4-((3-chloro-5-(trifluoromethoxy)phenoxy)methyl)-5-cyclopropyl-2-fluoro-N-methylbenzamido)-3-methylbutanoic acid], for which the IC50 on human NaV1.7 was 7300 nM; on hNav1.7, 3300 nM; at NaV1.5 (setting [2]) it was 11000 nM.

With `NC(=O)[C@@H]1CCCN1C(=O)c1cc(C2CC2)c(COc2cc(Cl)cc(OC(F)(F)F)c2)cc1F` [Example 188, (5)-1-(4-((3-chloro-5-(trifluoromethoxy)phenoxy)methyl)-5-cyclopropyl-2-fluorobenzoyl)pyrrolidine-2-carboxamide], the IC50 was 6600 nM against human NaV1.7, 9100 nM at hNav1.7 and 16000 nM at NaV1.5 (setting [2]).

With `O=C(N[C@@H](CC1CC1)C(=O)O)c1cc(C2CC2)c(OCC23CC4CC(CC(C4)C2)C3)cc1F` [Example 189, (S)-2-(4-((3S,5S,7S)-adamantan-1-ylmethoxy)-5-cyclopropyl-2-fluorobenzamido)-3-cyclopropylpropanoic acid], the IC50 was 4000 nM against human NaV1.7, 120 nM on hNav1.7 and 15000 nM on NaV1.5 (setting [2]).

Consider `O=C(O)[C@@H]1CCCN1C(=O)c1cc(C2CC2)c(OCC2CCN(Cc3cc(F)cc(Cl)c3)CC2)cc1F` [Example 190, (S)-1-(4-((1-(3-chloro-5-fluorobenzyl)piperidin-4-yl)methoxy)-5-cyclopropyl-2-fluorobenzoyl)pyrrolidine-2-carboxylic acid], for which the IC50 at human NaV1.7 was 2900 nM; on hNav1.7 it was 190 nM; at NaV1.5 (setting [1]), at least 30000 nM.

With `O=C(O)[C@@H]1CCCN1C(=O)c1cc(Cl)c(Oc2cnc(OCC(F)(F)F)c(Cl)c2)cc1F` [Example 191, (S)-1-(5-Chloro-4-((5-chloro-6-(2,2,2-trifluoroethoxy)pyridin-3-yl)oxy)-2-fluorobenzoyl)pyrrolidine-2-carboxylic acid trifluoroacetate], the IC50 against human NaV1.7 was 19000 nM; on hNav1.7, 2700 nM; against NaV1.5 (setting [1]), at least 30000 nM.

`O=C(O)[C@@H]1CCCN1C(=O)c1cc(C2CC2)c(OCC2CCN(C(c3ccccc3)c3cc(Cl)cc(Cl)c3)CC2)cc1F` (stereo partly drawn) [Example 193, (2S)-1-(5-Cyclopropyl-4-((1-((3,5-dichlorophenyl)(phenyl)methyl)piperidin-4-yl)methoxy)-2-fluorobenzoyl)pyrrolidine-2-carboxylic acid trifluoroacetate]: the IC50 against human NaV1.7 came to 990 nM; on hNav1.7, 20 nM; at NaV1.5 (setting [2]), 7600 nM.

As to `O=C(O)[C@@H]1CCCN1C(=O)c1cc(C2CCC2)c(OCC23CC4CC(CC(C4)C2)C3)cc1F` [Example 194, (S)-1-(4-(adamantan-1-ylmethoxy)-5-cyclobutyl-2-fluorobenzoyl)pyrrolidine-2-carboxylic acid trifluoroacetate], the IC50 came out at 640 nM against human NaV1.7, 22 nM on hNav1.7 and 10000 nM at NaV1.5 (setting [2]).

As to `Cc1nn(C2CCN(c3ccc(Cl)c(C(F)(F)F)n3)CC2)c2cc(F)c(C(=O)N3CCC[C@H]3C(=O)O)cc12` [Example 195, (S)-1-(1-(1-(5-chloro-6-(trifluoromethyl)pyridin-2-yl)piperidin-4-yl)-6-fluoro-3-methyl-1H-indazole-5-carbonyl)pyrrolidine-2-carboxylic acid trifluoroacetate], the IC50 against human NaV1.7 is 5900 nM; on hNav1.7 it was 1900 nM; against NaV1.5 (setting [1]), at least 30000 nM.

Regarding `CC1(COc2cc(F)c(C(=O)N3CCC[C@H]3C(=O)O)cc2C2CC2)CN(C(c2ccccc2)c2cc(Cl)cc(Cl)c2)C1` (stereo partly drawn) [Example 196, (2S)-1-(5-cyclopropyl-4-((1-((3,5-dichlorophenyl)(phenyl)methyl)-3-methylazetidin-3-yl)methoxy)-2-fluorobenzoyl)pyrrolidine-2-carboxylic acid trifluoroacetate], the IC50 at human NaV1.7 stood at 1400 nM; at hNav1.7, 18 nM; at NaV1.5 (setting [2]), 13000 nM.

Turning to `O=C(O)[C@@H]1CCCN1C(=O)c1cc(C2CC2)c(OCC2CCN(Cc3nc(-c4ccccc4Cl)no3)CC2)cc1F` [Example 197, (S)-1-(4-((1-((3-(2-chlorophenyl)-1,2,4-oxadiazol-5-yl)methyl)piperidin-4-yl)methoxy)-5-cyclopropyl-2-fluorobenzoyl)pyrrolidine-2-carboxylic acid trifluoroacetate], the values for the IC50 at human NaV1.7, at hNav1.7 and against NaV1.5 (setting [1]) were 3900 nM, 630 nM and at least 30000 nM, respectively.

Consider `O=C(O)[C@@H]1CCC(=O)N1C(=O)c1cc(C2CC2)c(OCC23CC4CC(CC(C4)C2)C3)cc1F` [Example 198, (S)-1-(4-(adamantan-1-ylmethoxy)-5-cyclopropyl-2-fluorobenzoyl)-5-oxopyrrolidine-2-carboxylic acid], for which the results for the IC50 against human NaV1.7, on hNav1.7 and at NaV1.5 (setting [2]) were 4500 nM, 1100 nM and 18000 nM, respectively.

As for `O=C(NO)[C@@H]1C[C@@H](F)CN1C(=O)c1cc(C2CC2)c(OCC23CC4CC(CC(C4)C2)C3)cc1F` [Example 199, 1-(4-(adamantan-1-ylmethoxy)-5-cyclopropyl-2-fluorobenzoyl)-4-fluoro-N-hydroxypyrrolidine-2-carboxamide], the IC50 on human NaV1.7 came to 3600 nM; at hNav1.7 it was 470 nM; on NaV1.5 (setting [2]) it was 15000 nM.

As to `O=C(O)[C@@H]1CC2(CC2)CN1C(=O)c1cc(C2CC2)c(OCC23CC4CC(CC(C4)C2)C3)cc1F` [Example 200, (S)-5-(4-(adamantan-1-ylmethoxy)-5-cyclopropyl-2-fluorobenzoyl)-5-azaspiro[2.4]heptane-6-carboxylic acid], the IC50 worked out at 790 nM at human NaV1.7, 84 nM on hNav1.7 and 12000 nM at NaV1.5.
